For this test, the target named is T1, PTP1B (Homo sapiens, UniProt P18031).
T1 sequence (P18031 1-435): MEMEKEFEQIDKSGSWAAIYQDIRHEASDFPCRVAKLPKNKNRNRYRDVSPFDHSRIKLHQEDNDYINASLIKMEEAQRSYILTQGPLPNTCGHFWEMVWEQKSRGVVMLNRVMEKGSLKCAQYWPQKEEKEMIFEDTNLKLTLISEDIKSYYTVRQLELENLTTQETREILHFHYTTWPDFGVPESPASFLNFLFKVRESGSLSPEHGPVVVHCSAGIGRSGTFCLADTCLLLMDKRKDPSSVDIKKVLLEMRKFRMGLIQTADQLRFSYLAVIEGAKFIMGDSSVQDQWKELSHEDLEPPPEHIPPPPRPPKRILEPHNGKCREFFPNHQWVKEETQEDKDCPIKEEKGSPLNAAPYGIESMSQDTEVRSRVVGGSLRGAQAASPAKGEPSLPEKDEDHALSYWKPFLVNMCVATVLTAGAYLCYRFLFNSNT
Nature of the test: PTP1B inhibition assay (hydrolysis of p-nitrophenyl phosphate, 96-well plate).

Read-outs that look alike come from different tables or passages of the source.

What is called IC50 is the concentration that inhibits the measured activity by half.

Method: PTP1B activity was measured as the rate of hydrolysis of p-nitrophenyl phosphate (pNPP) in a 96-well microtiter plate format [13]. […] Each experiment was performed in triplicate, and IC50 data were derived from three independent experiments.

Consider `C[C@@H]1CCC(=O)C[C@H](O)[C@@H](O)CC(=O)O1` [Compound 2, Cepharosporolides C], for which the half-maximal inhibitory concentration (IC50) was above 1000 µM.

The compound `CC1CCC2(CC3OC(=O)CC3O2)O1` (centres unmarked) [Compound 4, Cepharosporolides F] registered a concentration for half-maximal inhibition (IC50) above 1000 µM.

Compound `CCC(C)CC(C)C=C(C)C=CC=CC=C(C)C(O)=C1C(=O)NC(Cc2ccc(O)cc2)C1=O` (centres unmarked) [Compound 1, fumosorinone A] registered an IC50 of 3.24 ± 0.37 µM.

As for “2-carboxymethyl-4-(3′-hydroxybutyl)furan [Compound 5]”, where the note is “read-out: PTP1B inhibitory activity IC50, in vitro, pNPP substrate, triplicate, three independent experiments”, the IC50 was above 1000 µM.

With `C[C@@H]1CC[C@]2(C[C@@H]3OC(=O)C[C@@H]3O2)O1` [Compound 3, Cepharosporolides E], the IC50 was above 1000 µM.

For the origin of these results see paper PMC6149825, “PTP1B Inhibitors from the Entomogenous Fungi Isaria fumosorosea” (Molecules : A Journal of Synthetic Chemistry and Natural …, 2017).
